# Measurements as given in patent US20140329682A1, “METHOD OF CONTROLLING WEED IN A SUGAR CANE FIELD” (SUMITOMO CHEMICAL COMPANY, LIMITED, priority 2011, published 2014).
# How the values were obtained:
# sugar cane [1] = test: Phytotoxicity on sugar cane, spray above weed before planting, insecticide-treated stem cutting (Example 7)
# Method: (§1) The “phytotoxicity” evaluated herein is the damage characteristic determined to be due to a treated compound, and is clearly discriminated from the damage characteristic caused by a harmful animal or plant disease.
# (§2) A soil is packed into a plastic pot, and seeds of Amaranthus retroflexus are seeded thereon. Thereafter, the pot is placed in a greenhouse, and the weed is grown.
# (§3) A 30 cm to 40 cm stem cutting of sugar cane is placed on a wet soil, and germination is stimulated. The stem cutting from which a bud has grown to about 1 cm is selected, and the length of the stem cutting is adjusted to be 3 cm so that the stem cutting has one node. Clothianidin, thiamethoxiam, imidacloprid, dinotefuran, nitenpyram, acetamiprid or thiacloprid is adhered to the stem cutting.
# (§4) The pot for a test is placed in a greenhouse.
# sugar cane [2] = test: Phytotoxicity on sugar cane, spray above weed before planting, strobilurin-treated stem cutting (Example 9)
# Method: as §1, §2
# (§5) A 30 cm to 40 cm stem cutting of sugar cane is placed on a wet soil, and germination is stimulated. The stem cutting from which a bud has grown to about 1 cm is selected, and the length of the stem cutting is adjusted to be 3 cm so that the stem cutting has one node. Kresoxim-methyl, azoxystrobin, trifloxystrobin, fluoxastrobin, picoxystrobin, pyraclostrobin, dimoxystrobin, pyribencarb, metominostrobin, orysastrobin, enestrobin, pyraoxystrobin or pyrametostrobin is adhered to the stem cutting.
# as §4
# sugar cane [3] = test: Phytotoxicity on sugar cane, spray above weed before planting, metalaxyl-treated stem cutting (Example 13)
# Method: as §1
# A soil is packed into a plastic pot, and seeds of Amaranthus retroflexus are seeded thereon. Thereafter, a pot is placed in a greenhouse, and the weed is grown.
# as §3, with “Metalaxyl” for “Clothianidin, thiamethoxiam, imidacloprid, dinotefuran, nitenpyram, acetamiprid”, “metalaxyl-M” for “thiacloprid”
# as §4
# Amaranthus retroflexus [4] = test: Herbicidal activity, spray above weed before planting, strobilurin-treated stem cutting (Example 9); type: in vivo; details: sprayed above weed, 3 cm stem cutting treated with kresoxim-methyl, azoxystrobin or another listed strobilurin fungicide planted one week after treatment, four weeks after treatment
# sugar cane [5] = test: Phytotoxicity on sugar cane, soil surface spray, insecticide-treated stem cutting (Example 6)
# Excerpt: as §1
# as §3, with “cutting. A soil is packed into a plastic pot, and seeds of Amaranthus retroflexus are seeded thereon. The stem cutting of sugar cane treated with clothianidin, thiamethoxiam, imidacloprid, dinotefuran, nitenpyram, acetamiprid or thiacloprid is planted in the soil packed into the pot at a depth of 2 cm. […] Thereafter, the pot for a test is placed in a greenhouse.” for “cutting.”
# sugar cane [6] = test: Phytotoxicity on sugar cane, spray above weed one week before planting (Example 5)
# Method: as §1, §2
# A 30 cm to 40 cm stem cutting of sugar cane is placed on a wet soil, and germination is stimulated. The stem cutting from which a bud has been grown to about 1 cm is selected, and the length of the stem cutting is adjusted to be 3 cm so that the stem cutting has one node.
# as §4
# Amaranthus retroflexus [7] = test: Herbicidal activity, soil surface spray, insecticide-treated stem cutting (Example 6); type: in vivo; details: 3 cm stem cutting treated with clothianidin, thiamethoxiam, imidacloprid, dinotefuran, nitenpyram, acetamiprid or thiacloprid, four weeks after treatment
# Method: A 30 cm to 40 cm stem cutting of sugar cane is placed on a wet soil, and germination is stimulated. The stem cutting from which a bud has grown to about 1 cm is selected, and the length of the stem cutting is adjusted to be 3 cm so that the stem cutting has one node. Clothianidin, thiamethoxiam, imidacloprid, dinotefuran, nitenpyram, acetamiprid or thiacloprid is adhered to the stem cutting. A soil is packed into a plastic pot, and seeds of Amaranthus retroflexus are seeded thereon. The stem cutting of sugar cane treated with clothianidin, thiamethoxiam, imidacloprid, dinotefuran, nitenpyram, acetamiprid or thiacloprid is planted in the soil packed into the pot at a depth of 2 cm. […] Thereafter, the pot for a test is placed in a greenhouse.
# Amaranthus retroflexus [8] = test: Herbicidal activity, spray above weed before planting, azole-fungicide-treated stem cutting (Example 11); type: in vivo; details: sprayed above weed, 3 cm stem cutting treated with azaconazole, bitertanol or another listed azole-type fungicide planted one week after treatment, four weeks after treatment
# sugar cane [9] = test: Phytotoxicity on sugar cane, spray above weed before planting, azole-fungicide-treated stem cutting (Example 11)
# Method: as §1
# A soil is packed into a plastic pat, and seeds of Amaranthus retroflexus are seeded thereon. Thereafter, the pot is placed in a greenhouse, and the weed is grown.
# A 30 cm to 40 cm stem cutting of sugar cane is placed on a wet soil, and germination is stimulated. The stem cutting from which a bud has grown to about 1 cm is selected, and the length of the stem cutting is adjusted to be 3 cm so that the stem cutting has one node. Azaconazole, bitertanol, bromoconazole, cyproconazole, difenoconazole, diniconazole, epoxyconazole, fenbuconazole, fluquinconazole, flusilazole, flutriafol, hexaconazole, imibenconazole, ipconazole, metconazole, myclobutanil, penconazole, propiconazole, prothioconazole, simeconazole, tebuconazole, tetraconazole, triadimenol, triticonazole, fenarimol, nuarimol, pyrifenox, imazalil, oxpoconazole fumarate, pefurazoate, procloraz or triflumizole is adhered to the stem cutting.
# as §4
# sugar cane [10] = test: Phytotoxicity on sugar cane, soil surface spray, strobilurin-treated stem cutting (Example 8)
# Excerpt: as §1
# as §5, with “cutting. A soil is packed into a plastic pot, and seeds of Amaranthus retroflexus are seeded thereon. The stem cutting of sugar cane treated with kresoxim-methyl, azoxystrobin, trifloxystrobin, fluoxastrobin, picoxystrobin, pyraclostrobin, dimoxystrobin, pyribencarb, metominostrobin, orysastrobin, enestrobin, pyraoxystrobin or pyrametostrobin is planted in the soil packed into the pot at a depth of 2 cm. […] Thereafter, the pot for a test is placed in a greenhouse.” for “cutting.”
# Amaranthus retroflexus [11] = test: Herbicidal activity, soil surface spray, strobilurin-treated stem cutting (Example 8); type: in vivo; details: 3 cm stem cutting treated with kresoxim-methyl, azoxystrobin or another listed strobilurin fungicide, four weeks after treatment
# Excerpt: A 30 cm to 40 cm stem cutting of sugar cane is placed on a wet soil, and germination is stimulated. The stem cutting from which a bud has grown to about 1 cm is selected, and the length of the stem cutting is adjusted to be 3 cm so that the stem cutting has one node. Kresoxim-methyl, azoxystrobin, trifloxystrobin, fluoxastrobin, picoxystrobin, pyraclostrobin, dimoxystrobin, pyribencarb, metominostrobin, orysastrobin, enestrobin, pyraoxystrobin or pyrametostrobin is adhered to the stem cutting. A soil is packed into a plastic pot, and seeds of Amaranthus retroflexus are seeded thereon. The stem cutting of sugar cane treated with kresoxim-methyl, azoxystrobin, trifloxystrobin, fluoxastrobin, picoxystrobin, pyraclostrobin, dimoxystrobin, pyribencarb, metominostrobin, orysastrobin, enestrobin, pyraoxystrobin or pyrametostrobin is planted in the soil packed into the pot at a depth of 2 cm. […] Thereafter, the pot for a test is placed in a greenhouse.
# Amaranthus retroflexus [12] = test: Herbicidal activity, spray above weed before planting, insecticide-treated stem cutting (Example 7); type: in vivo; details: sprayed above weed, 3 cm stem cutting treated with clothianidin, thiamethoxiam, imidacloprid, dinotefuran, nitenpyram, acetamiprid or thiacloprid planted one week after treatment, four weeks after treatment
Structure (SMILES),phytotoxicity (sugar cane [1]; in vivo),phytotoxicity (sugar cane [2]; in vivo),phytotoxicity (sugar cane [3]; in vivo),herbicidal activity against Amaranthus retroflexus (Amaranthus retroflexus [4]),phytotoxicity (sugar cane [5]; in vivo),phytotoxicity (sugar cane [6]; in vivo),herbicidal activity against Amaranthus retroflexus (Amaranthus retroflexus [7]),herbicidal activity against Amaranthus retroflexus (Amaranthus retroflexus [8]),phytotoxicity (sugar cane [9]; in vivo),phytotoxicity (sugar cane [10]; in vivo),herbicidal activity against Amaranthus retroflexus (Amaranthus retroflexus [11]),herbicidal activity against Amaranthus retroflexus (Amaranthus retroflexus [12]),"phytotoxicity (sugar cane [1]; Example 7, sprayed above weed, 3 cm stem cutting treated with clothianidin, thiamethoxiam, imidacloprid, dinotefuran, nitenpyram, acetamiprid or thiacloprid planted one week after treatment, four weeks after treatment)","phytotoxicity (sugar cane [2]; Example 9, sprayed above weed, 3 cm stem cutting treated with kresoxim-methyl, azoxystrobin or another listed strobilurin fungicide planted one week after treatment, four weeks after treatment)","phytotoxicity (sugar cane [3]; Example 13, sprayed above weed, 3 cm stem cutting treated with metalaxyl or metalaxyl-M planted one week after treatment, four weeks after treatment)","phytotoxicity (sugar cane [5]; Example 6, 3 cm stem cutting treated with clothianidin, thiamethoxiam, imidacloprid, dinotefuran, nitenpyram, acetamiprid or thiacloprid, soil surface spray, four weeks after treatment)","phytotoxicity (sugar cane [6]; Example 5, sprayed above weed three weeks after seeding, 3 cm stem cutting planted one week after treatment, four weeks after treatment)","phytotoxicity (sugar cane [9]; Example 11, sprayed above weed, 3 cm stem cutting treated with azaconazole, bitertanol or another listed azole-type fungicide planted one week after treatment, four weeks after treatment)","phytotoxicity (sugar cane [10]; Example 8, 3 cm stem cutting treated with kresoxim-methyl, azoxystrobin or another listed strobilurin fungicide, soil surface spray, four weeks after treatment)"
CC(C)Oc1cc(-n2nc(C(C)(C)C)oc2=O)c(Cl)cc1Cl [oxadiazon],significant phytotoxicity on sugar cane is not observed,significant phytotoxicity on sugar cane is not observed,significant phytotoxicity on sugar cane is not observed,the controlling effect on a weed can be confirmed,significant phytotoxicity on sugar cane is not observed,significant phytotoxicity on sugar cane is not found,the controlling effect on a weed can be confirmed,the controlling effect on a weed can be confirmed,significant phytotoxicity on sugar cane is not observed,significant phytotoxicity on sugar cane is not observed,the controlling effect on a weed can be confirmed,the controlling effect on a weed can be confirmed,,,,,,,
CCOc1cc(Oc2ccc(C(F)(F)F)cc2Cl)ccc1[N+](=O)[O-] [oxyfluorfen],,,,the controlling effect on a weed can be confirmed,,,the controlling effect on a weed can be confirmed,the controlling effect on a weed can be confirmed,,,the controlling effect on a weed can be confirmed,the controlling effect on a weed can be confirmed,significant phytotoxicity on sugar cane is not observed,significant phytotoxicity on sugar cane is not observed,significant phytotoxicity on sugar cane is not observed,significant phytotoxicity on sugar cane is not observed,significant phytotoxicity on sugar cane is not found,significant phytotoxicity on sugar cane is not observed,significant phytotoxicity on sugar cane is not observed
Cc1nn(-c2cc(NS(C)(=O)=O)c(Cl)cc2Cl)c(=O)n1C(F)F [sulfentrazone],significant phytotoxicity on sugar cane is not observed,significant phytotoxicity on sugar cane is not observed,significant phytotoxicity on sugar cane is not observed,the controlling effect on a weed can be confirmed,significant phytotoxicity on sugar cane is not observed,significant phytotoxicity on sugar cane is not found,the controlling effect on a weed can be confirmed,the controlling effect on a weed can be confirmed,significant phytotoxicity on sugar cane is not observed,significant phytotoxicity on sugar cane is not observed,the controlling effect on a weed can be confirmed,the controlling effect on a weed can be confirmed,,,,,,,
